Experimental data: US20120178815A1, “Compositions of (-)-E-10-OH-NT and Methods for Their Synthesis and Use” (Adolor Corporation, priority 2007, published 2012)
Read-outs that look alike come from different tables or passages of the source.

Key:
[1] = target: T1, α1a adrenergic receptor (rat salivary gland membranes) (Rattus norvegicus, UniProt P43140); assay: α1a adrenergic receptor binding, [3H]prazocine
T1 construct: tested using membranes prepared from rat salivary gland; from tissue; host or cells: rat salivary gland membranes
T1 sequence (P43140 1-466): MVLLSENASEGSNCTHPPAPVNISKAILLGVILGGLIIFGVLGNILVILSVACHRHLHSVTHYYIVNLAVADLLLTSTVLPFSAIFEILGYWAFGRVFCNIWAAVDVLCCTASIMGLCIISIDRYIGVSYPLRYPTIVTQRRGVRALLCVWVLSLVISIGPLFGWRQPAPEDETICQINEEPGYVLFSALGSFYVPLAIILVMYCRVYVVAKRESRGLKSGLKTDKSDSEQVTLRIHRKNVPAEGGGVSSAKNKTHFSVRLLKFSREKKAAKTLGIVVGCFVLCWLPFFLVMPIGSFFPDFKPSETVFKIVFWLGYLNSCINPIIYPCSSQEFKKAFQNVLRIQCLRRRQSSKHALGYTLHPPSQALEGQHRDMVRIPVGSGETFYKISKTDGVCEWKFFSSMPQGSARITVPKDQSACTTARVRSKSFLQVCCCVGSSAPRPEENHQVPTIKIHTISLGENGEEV
Procedure: The affinities of AT, NT, (+)-E-10-OH-NT and (−)-E-OH-NT for the α1a, α1b, α2a, α2b, and α2c adrenergic receptors was tested. Affinity for the α1a adrenergic receptor was tested using membranes prepared from rat salivary gland. [^3H]Prazocine (0.06 nM) was incubated in the presence of various concentrations of test compounds with the membranes for 1 hour at 22° C. Nonspecific binding was determined in the presence of 10 μM phentolamine. Bound radioactivity was determined by scintillation spectroscopy.

[2] = target: T2, human muscarinic receptor M2 (Homo sapiens, UniProt P08172); assay: Muscarinic M2 receptor binding, [3H]AF-DX384; settings: read-out: Affinity for Muscarinic Receptors, M2, Ki
T2 construct: expressed in transfected cells; host or cells: CHO cells (membranes)
T2 sequence (P08172 1-466): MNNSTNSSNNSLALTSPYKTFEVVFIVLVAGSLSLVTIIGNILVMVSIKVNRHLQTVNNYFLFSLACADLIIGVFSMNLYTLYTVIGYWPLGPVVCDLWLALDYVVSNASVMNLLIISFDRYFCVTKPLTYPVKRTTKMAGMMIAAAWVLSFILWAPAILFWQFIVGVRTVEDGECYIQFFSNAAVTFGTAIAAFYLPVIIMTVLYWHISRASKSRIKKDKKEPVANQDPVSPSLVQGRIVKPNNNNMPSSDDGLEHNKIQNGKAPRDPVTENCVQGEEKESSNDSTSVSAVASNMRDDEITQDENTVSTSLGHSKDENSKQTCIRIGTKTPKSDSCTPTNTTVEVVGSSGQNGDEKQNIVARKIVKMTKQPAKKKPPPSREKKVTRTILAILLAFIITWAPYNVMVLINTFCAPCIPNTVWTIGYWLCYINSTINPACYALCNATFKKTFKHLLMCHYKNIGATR
Procedure: Protocol. […] Bound radioactivity was determined by scintillation spectroscopy. Non-specific binding was defined as the amount of bound radioligand in the presence of 1.0 μM atropine. Radioligand for the M1 receptor was [^3H]pirenzepine (2 nM). Radioligand for the M2 receptor was [^3H]AF-DX384 (2 nM). Radioligand for the M3, M4, and M5 receptors was [^3H]4-DAMP.

[3] = tested on: FCA-induced mechanical hyperalgesia in rats; assay: Rat FCA-induced mechanical hyperalgesia assay (paw pressure threshold); assay type: in vivo; settings: for antihyperalgesic activity (% AH): 60 mg/kg IP; for antihyperalgesic activity (% AH) / ED50 for reversal of mechanical hyperalgesia: 1 h posttreatment; for antihyperalgesic activity (% AH) / antihyperalgesia (% AH): 24 h FCA-treated rats; for ED50 for reversal of mechanical hyperalgesia: response at 60 mg/kg IP taken as maximal response (100%); for antihyperalgesia (% AH): 1 hour after treatment
Procedure: Protocol. […] Dosage amounts are based on the amount of free base. For the assay, the methods of DeHaven-Hudkins et al., 1999 were used to determine mechanical hyperalgesia in rats 24 hours after intraplantar administration of 150 μL Freund's Complete Adjuvant (FCA). To determine paw pressure thresholds, the rats were lightly restrained in a gauze wrap and pressure was applied to the dorsal surface of the inflamed and uninflamed paw with a conical piston using a pressure analgesia apparatus (Stoelting Instruments, Wood Dale, Ill.). The paw pressure threshold was defined as the amount of force (in grams) required to elicit an escape response using a cutoff value of 250 grams.
Paw pressure thresholds were measured 1 h posttreatment.
Protocol. […] For comparison, sterile water vehicle was tested as a negative control. The methods of DeHaven-Hudkins et al., 1999 were used to determine mechanical hyperalgesia in rats 24 hours after intraplantar administration of 150 μL Freund's Complete Adjuvant (FCA). To determine paw pressure thresholds, the rats were lightly restrained in a gauze wrap and pressure was applied to the dorsal surface of the inflamed and uninflamed paw with a conical piston using a pressure analgesia apparatus (Stoelting Instruments, Wood Dale, Ill.). The paw pressure threshold was defined as the amount of force (in grams) required to elicit an escape response using a cutoff value of 250 grams.
Paw pressure thresholds were determined 1, 2, or 4 hours after administration using the methods disclosed in Examples 5 and 18.
Accordingly, rats were treated with sterile water vehicle, 30, or 60 mg/kg IP twenty-four hours after administration of FCA.

[4] = target: T3, α2c adrenergic receptor (Homo sapiens, UniProt P18825); assay: α2c adrenergic receptor binding, [3H]RX821002; settings: for inhibition at 10 µM: read-out: α2c adrenergic receptor, % inhib. at 10 μM
T3 construct: expressed in transfected cells; host or cells: CHO cells
T3 sequence (P18825 1-462): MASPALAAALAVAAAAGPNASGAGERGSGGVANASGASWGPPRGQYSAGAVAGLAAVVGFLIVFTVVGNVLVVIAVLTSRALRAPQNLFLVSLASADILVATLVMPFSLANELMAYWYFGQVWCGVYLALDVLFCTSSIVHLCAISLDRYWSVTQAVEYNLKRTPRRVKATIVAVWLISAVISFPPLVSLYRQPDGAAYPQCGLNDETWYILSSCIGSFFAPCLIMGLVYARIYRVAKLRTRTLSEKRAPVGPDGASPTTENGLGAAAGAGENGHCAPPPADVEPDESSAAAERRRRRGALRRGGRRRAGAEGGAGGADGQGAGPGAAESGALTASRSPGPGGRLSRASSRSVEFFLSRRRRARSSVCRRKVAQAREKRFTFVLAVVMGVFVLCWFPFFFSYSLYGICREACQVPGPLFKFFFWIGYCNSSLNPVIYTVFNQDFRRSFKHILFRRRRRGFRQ
Procedure: Nonspecific binding was determined in the presence of 100 μM (−)-epinephrine. Bound radioactivity was determined by scintillation spectroscopy.

[5] = read-out: Affinity at α1a adrenergic receptor, Ki

Structure (SMILES)	Ki [1]	Ki [2]	Ki [1, 5]	antihyperalgesic activity (% AH) [3]	ED50 for reversal of mechanical hyperalgesia [3]	Ki ([4]; read-out: Affinity at α2c adrenergic receptor, Ki)	antihyperalgesia (% AH) ([3]; 30 mg/kg IP)	antihyperalgesic activity, time course ([3]; 30 mg/kg IP, 1, 2, or 4 hours after administration)	inhibition at 10 µM [4]	antihyperalgesic activity (Example 5) ([3]; 30 mg/kg, i.p.)	antihyperalgesic activity, orally-administered ([3]; oral administration)
CNCCC=C1c2ccccc2CCc2ccccc21 [NT, nortriptyline, reference compound]	60 nM	220 nM									
CN(C)CCC=C1c2ccccc2CCc2ccccc21 [AT, amitriptyline, reference compound]			21 nM	259±39 % AH	38 mg/kg IP	13 nM					
CNCC/C=C1\c2ccccc2C[C@H](O)c2ccccc21 (stereo in doubt) [(+)-E-10-OH-NT]		4200 nM	700 nM	40±13 % AH			not antihyperalgesic	not antihyperalgesic at any time point tested	35%		
CNCC/C=C1\c2ccccc2C[C@@H](O)c2ccccc21 (stereo in doubt) [(−)-E-10-OH-NT]		2600 nM	3000 nM	270±53 % AH	36 mg/kg IP		55±7 % AH		30%	robust antihyperalgesic activity	significant activity
